Results as given in patent US20240294545A1 (CSPC Zhongqi Pharmaceutical Technology (Shijiazhuang) Co., …, priority 2020, published 2024).
Where two headings read alike, the source gives them in different places. Marks after values point to notes of the source that are not given here. One block for each compound: values may come before it.

Key:
[1] = test system: subcutaneous xenograft tumor of human colon cancer cell line HT-29; assay: HT-29 subcutaneous xenograft, combined with irinotecan liposome injection; assay type: in vivo, NU/NU mice; settings: for inhibitory effect on tumor volume and tumor weight, in words: combined with irinotecan liposome injection, compared with AZD1390; for D 16 TGI / D 16 TV (MEAN ± SD) / Tumor weight / Tumor weight inhibitory rate: compound 25 mg/kg intragastric + irinotecan liposome 10 mg/kg ip; for D 16 TGI / D 16 TV (MEAN ± SD): day 16; for Tumor weight / Tumor weight inhibitory rate: end of test
Procedure: 7 Efficacy Test of the Compounds of the Present Disclosure Combined with Irinotecan Liposome Injection on Inhibiting the Growth of Subcutaneous Xenograft Tumor of Human Colon Cancer Cell Line HT-29
7.1 Experimental Animals: NU/NU Mice, SPF, Female, 20 to 30 g.
Irinotecan liposome injection (HE072), 43 mg: 10 mL, milky white liquid, batch No. B37191202, provided by Preparation Research Institute 2 from CSPC Zhongqi Pharmaceutical Technology (Shijiazhuang) Co., Ltd., diluted to an appropriate concentration with 5% glucose injection while testing.
HT-29 cell, provided by Nanjing Kebai Biotechnology Co., Ltd.; 5A culture medium:fetal bovine serum=90%:10%, 37° C., 5% CO2.
NU/NU nude mice were subcutaneously inoculated with HT-29 human colon cancer cells. When the mean tumor volume reached about 170 mm^3 (9 days after inoculation), the animals were evenly divided into groups according to the tumor volume (d0), with 6 mice in each group. 10 mg/kg of HE072 was administered intraperitoneally once a week for 1 time. Vehicle control, 25 mg/kg of A-6, 25 mg/kg of A-46, and 25 mg/kg of AZD1390 were administered intragastrically once a day, from Monday to Thursday every week except Friday to Sunday, for 1 week (4 times). The tumor volume was measured twice a week, the body weight of mouse was weighed every day, and the data were recorded. The tumor volume (TV) was calculated according to the formula: TV=½×a×b2, wherein a and b represent the long and short diameters of tumor, respectively. Tumor growth inhibitory rate TGI (%)=[1−(Ti−T0)/(Vi−V0)]×100, wherein Ti represents the mean tumor volume of a given treatment group on a certain day; TO represents the mean tumor volume of this treatment group at the beginning of administration; Vi represents the mean tumor volume of the vehicle control group on a certain day (the same day as that in Ti); V0 represents the mean tumor volume of the vehicle control group at the beginning of administration. At the end of the test (d17), the animals were sacrificed, the tumors were stripped and weighed, and the tumor weight inhibitory rates were calculated.

[2] = target: ATM (Homo sapiens (Human), UniProt Q13315); assay: Caliper mobility shift assay for ATM; assay type: biochemical; settings: read-out: IC50 of inhibitory activity on ATM kinase
Procedure: 1.2 Determination of the Inhibitory Activities of Compounds on ATM: Caliper Mobility Shift Assay for ATM
To a 96-well plate, 98 μL of DMSO and 2 μL of the 10 mM stock solution were added and mixed evenly so that the concentration of the solution was 200 μM.
Based on the inhibitory rates of the compound at different concentrations, IC50 was calculated according to the formula: Y=Bottom+(Top−Bottom)/(1+(IC50/X)^HillSlope).

[3] = test system: subcutaneous xenograft tumor of human glioblastoma LN-18; assay: LN-18 subcutaneous xenograft, combined with radiotherapy; assay type: in vivo, NOG mice; settings: day 17
Procedure: 9 Efficacy Test of the Compounds of the Present Disclosure Combined with Radiotherapy on Inhibiting the Growth of Subcutaneous Xenograft Tumor of Human Glioblastoma LN-18
9.1 Experimental Animals: NOG Mice, SPF, Female, 18 to 22 g.
LN-18 tumor cells, DMEM medium:fetal bovine serum=95%:5%, accompanied by adding 100 U/mL penicillin and 100 μg/mL streptomycin, 37° C., 5% CO2.
LN18 tumor cells resuspended in serum-free DMEM medium were inoculated subcutaneously in the right costal region of experimental animals at 1.5*10^7/0.15 mL, and the animals were grouped when the tumor grew to 100 to 150 mm^3. Radiotherapy was performed 1 h after administration of compounds.
Tumor volume: The tumor volume was measured twice a week with a vernier caliper, and the long diameter and short diameter of tumor were measured. The tumor volume was calculated as follows: tumor volume (TV)=0.5×long diameter×short diameter^2. Tumor growth inhibitory rate (TGI %) was calculated according to the tumor volume. TVXn represents the mean tumor volume on day n of the treatment group, TVX0 represents the mean tumor volume on day 0 of the treatment group, TVMn represents the mean tumor volume on day n of the control group, and TVM0 represents the mean tumor volume on day 0 of the control group.

[4] = test system: ATM-phosphorylated KAP1; assay: Intracellular ATM-phosphorylated KAP1 level, ICW assay in MCF7 cells; assay type: cell-based, Human; settings: MCF7 cells, 2 h compound, 10 Gy irradiation, further 1 h, read-out: pKAP1 IC50
Procedure: 4 Inhibition on Intracellular ATM-Phosphorylated KAP1 Level by the Compounds of the Present Disclosure: ICW Assay
• Cell: Human breast cancer cell line MCF7 • Materials and reagents:
4.2 Experimental Procedures
• (1) Cell inoculation • MCF7 cells were inoculated on a 384-well plate, 10000 cells/well (25 μL/well), and cultured overnight at 37° C. with 5% CO2. • (2) Activity detection • 1) The compound was formulated into a 100 mM solution with DMSO and then sequentially diluted with a gradient of 1:3 to yield a total of 10 concentration gradients, wherein the maximum concentration was 100 μM. • 2) 25 nL of each of the compound solutions with gradient concentrations prepared in step 1) was added to each well of the cell plate (Corning #356663) by using I-DOT One, resulting in a final concentration of 100 nM (maximum dose). • 3) The cell plate containing compound was incubated at 37° C. with 5% CO2 for 2 h. After 2 h, the cell plate was irradiated with a dose of 10 Gy, and then further incubated for 1 h. • 4) 25 μL of 8% paraformaldehyde was added to each well, followed by incubating at room temperature for 20 min. • 5) The 8% paraformaldehyde was discarded, followed by adding 0.1% TrintonX-100 and incubating at room temperature for 30 min. • 6) Odessey blocking buffer was added at 50 μL/well, followed by incubating at room temperature for 1.5 h. • 7) The Odessey blocking buffer was discarded, and then a primary antibody (Phospho-KAP1, 1:2000 dilution) was added, followed by incubating overnight at 4° C. • 8) The primary antibody was removed, followed by washing with PBS+0.1% Tween 20 for 5 times. • 9) DNA dye DRAQ5 coated with a second antibody (IRDye 800CW Goat anti-Rabbit, 1:4000 dilution) was added, followed by incubating at room temperature for 1 h. • 10) The second antibody was removed, followed by washing with PBS+0.1% Tween 20 for 5 times. • 11) PBS+0.1% Tween 20 was sucked off with Odyssey. • (3) Data analysis • 1) the relative ratio of Channel 800/Channel 700 for each well was detected. • 2) % of KAP1 phosphorylation was calculated according to the following formula:
% of KAP1 phosphorylation=[(Ratiocmpd−(Ratio)Positive)/((Ratio)Vehicle−(Ratio)Positive]*100 • (Ratio)Positive: the mean value of the test values of each positive control well in the test cell plate; • (Ratio)Vehicle: the mean value of the test values of each negative control well in the test cell plate. • 3) the IC50 of each compound was calculated and the dose-effect curve was plotted: % of KAP1 phosphorylation and log of compound's concentration were fit by using Graphpad 8.0 so as to calculate the IC50.
[formula] • X: log of compound's concentration • Y: % of KAP1 phosphorylation

[5] = compound 10 mg/kg intragastric qd × 5 + IR 1 Gy
[6] = compound 20 mg/kg intragastric qd × 5 + IR 1 Gy

Sequence of ATM (Q13315 whole entry): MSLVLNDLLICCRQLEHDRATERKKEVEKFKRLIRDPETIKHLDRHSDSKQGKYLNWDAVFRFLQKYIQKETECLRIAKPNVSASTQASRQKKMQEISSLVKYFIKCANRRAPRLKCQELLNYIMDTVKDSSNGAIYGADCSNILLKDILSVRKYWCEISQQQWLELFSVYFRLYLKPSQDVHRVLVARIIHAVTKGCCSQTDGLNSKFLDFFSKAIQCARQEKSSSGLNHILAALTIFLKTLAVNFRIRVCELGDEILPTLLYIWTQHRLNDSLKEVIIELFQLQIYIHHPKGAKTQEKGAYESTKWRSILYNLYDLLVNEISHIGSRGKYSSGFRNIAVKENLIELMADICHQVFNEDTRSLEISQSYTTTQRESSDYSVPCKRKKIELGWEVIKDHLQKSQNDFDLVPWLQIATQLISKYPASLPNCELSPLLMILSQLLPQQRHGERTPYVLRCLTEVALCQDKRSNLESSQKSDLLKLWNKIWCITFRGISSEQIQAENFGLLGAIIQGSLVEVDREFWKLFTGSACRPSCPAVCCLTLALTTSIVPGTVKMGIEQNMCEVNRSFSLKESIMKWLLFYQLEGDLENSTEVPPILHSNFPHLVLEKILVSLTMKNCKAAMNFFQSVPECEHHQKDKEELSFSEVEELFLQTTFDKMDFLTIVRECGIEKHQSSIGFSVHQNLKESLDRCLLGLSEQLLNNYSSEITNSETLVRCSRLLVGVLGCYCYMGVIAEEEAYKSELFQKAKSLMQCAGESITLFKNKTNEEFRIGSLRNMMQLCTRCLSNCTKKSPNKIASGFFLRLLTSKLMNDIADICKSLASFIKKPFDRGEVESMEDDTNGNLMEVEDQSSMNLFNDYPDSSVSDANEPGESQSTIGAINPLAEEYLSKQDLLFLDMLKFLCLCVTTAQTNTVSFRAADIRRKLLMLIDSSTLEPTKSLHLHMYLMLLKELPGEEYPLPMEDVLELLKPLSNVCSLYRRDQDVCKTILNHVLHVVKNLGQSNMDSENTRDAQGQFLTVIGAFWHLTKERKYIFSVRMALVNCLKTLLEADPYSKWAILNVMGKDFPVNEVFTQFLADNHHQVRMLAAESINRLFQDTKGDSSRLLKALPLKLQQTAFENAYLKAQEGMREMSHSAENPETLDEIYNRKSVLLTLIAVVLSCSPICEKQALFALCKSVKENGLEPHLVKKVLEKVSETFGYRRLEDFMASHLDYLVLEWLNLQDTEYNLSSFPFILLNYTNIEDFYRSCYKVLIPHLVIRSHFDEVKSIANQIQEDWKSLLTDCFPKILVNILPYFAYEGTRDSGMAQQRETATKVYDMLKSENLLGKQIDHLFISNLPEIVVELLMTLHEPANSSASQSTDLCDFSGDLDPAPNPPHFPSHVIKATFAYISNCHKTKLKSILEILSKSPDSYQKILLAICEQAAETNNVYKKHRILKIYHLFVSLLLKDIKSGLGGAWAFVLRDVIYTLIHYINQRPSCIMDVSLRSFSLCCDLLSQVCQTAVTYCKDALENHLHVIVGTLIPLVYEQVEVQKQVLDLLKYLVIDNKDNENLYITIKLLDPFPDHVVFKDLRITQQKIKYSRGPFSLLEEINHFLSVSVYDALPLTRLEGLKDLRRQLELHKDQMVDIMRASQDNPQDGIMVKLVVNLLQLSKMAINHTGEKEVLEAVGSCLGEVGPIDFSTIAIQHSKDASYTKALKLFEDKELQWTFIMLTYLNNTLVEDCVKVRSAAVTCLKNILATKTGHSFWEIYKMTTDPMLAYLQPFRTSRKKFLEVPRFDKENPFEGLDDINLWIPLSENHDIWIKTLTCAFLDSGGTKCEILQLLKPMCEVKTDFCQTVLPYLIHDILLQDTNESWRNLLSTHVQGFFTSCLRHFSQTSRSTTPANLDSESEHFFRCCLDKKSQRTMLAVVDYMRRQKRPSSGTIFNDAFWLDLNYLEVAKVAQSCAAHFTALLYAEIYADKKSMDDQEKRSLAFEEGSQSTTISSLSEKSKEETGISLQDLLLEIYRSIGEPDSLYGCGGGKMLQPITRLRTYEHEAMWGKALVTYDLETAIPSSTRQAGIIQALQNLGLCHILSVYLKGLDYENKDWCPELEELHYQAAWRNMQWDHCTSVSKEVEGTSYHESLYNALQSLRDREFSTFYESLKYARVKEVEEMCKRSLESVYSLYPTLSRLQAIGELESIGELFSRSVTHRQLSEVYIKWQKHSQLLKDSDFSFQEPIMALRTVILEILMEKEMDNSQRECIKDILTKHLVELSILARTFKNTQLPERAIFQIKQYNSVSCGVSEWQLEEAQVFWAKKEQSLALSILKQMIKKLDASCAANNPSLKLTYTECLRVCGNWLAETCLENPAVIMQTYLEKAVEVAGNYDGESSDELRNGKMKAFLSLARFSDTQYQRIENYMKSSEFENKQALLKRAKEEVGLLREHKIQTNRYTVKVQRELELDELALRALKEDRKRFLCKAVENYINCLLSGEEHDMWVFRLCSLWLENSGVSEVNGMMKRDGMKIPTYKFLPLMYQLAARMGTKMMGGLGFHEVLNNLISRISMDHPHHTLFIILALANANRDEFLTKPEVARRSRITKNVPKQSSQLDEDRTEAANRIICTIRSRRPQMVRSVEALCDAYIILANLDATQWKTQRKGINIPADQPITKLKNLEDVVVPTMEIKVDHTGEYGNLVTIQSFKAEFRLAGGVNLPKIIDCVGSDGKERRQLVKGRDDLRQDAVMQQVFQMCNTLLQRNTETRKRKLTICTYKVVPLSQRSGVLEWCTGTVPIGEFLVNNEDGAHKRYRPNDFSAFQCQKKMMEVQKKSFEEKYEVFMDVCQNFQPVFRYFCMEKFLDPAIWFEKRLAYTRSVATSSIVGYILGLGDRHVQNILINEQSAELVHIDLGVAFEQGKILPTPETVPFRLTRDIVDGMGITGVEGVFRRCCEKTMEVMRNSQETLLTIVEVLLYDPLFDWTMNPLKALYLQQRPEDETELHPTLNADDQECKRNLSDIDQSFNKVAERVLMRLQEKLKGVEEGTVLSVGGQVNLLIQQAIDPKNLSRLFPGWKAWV

- IC50 [2]: 0.38 nM
SMILES: CC[C@H]1COc2c(-c3ccc(OCCCN(C)C)nc3)ccc3ncc4c(c23)n1c(=O)n4C [Example A-189, (S)-7-(6-(3-(dimethylamino)propoxy)pyridin-3-yl)-10-ethyl-2-methyl-9,10-dihydro-8-oxa-2,4,10a-triazanaphtho[2,1,8-cde]azulen-1(2H)-one]

- IC50 [2]: 0.69 nM
SMILES: C[C@H]1CNc2c(-c3ccc(OCCCN4CCCCC4)nc3)c(F)cc3ncc4c(c23)n1c(=O)n4C [Example A-191, (S)-6-fluoro-2,10-dimethyl-7-(6-(3-(piperidin-1-yl)propoxy)pyridin-3-yl)-2,8,9,10-tetrahydro-1H-2,4,8,10a-tetraazanaphtho[2,1,8-cde]azulen-1(2H)-one]
- D 17 TGI [3, 5]: 76.9%
- D 17 TV (MEAN ± SD) [3, 5]: 347 ± 64***^ mm^3

- IC50 ([4]; Homo sapiens, light or radiation study): 1.44 nM
- IC50 [2]: 0.53 nM
SMILES: Cn1c(=O)n2c3c4c(c(-c5ccc(OCCCN6CCCCC6)nc5)c(F)cc4ncc31)NCC21CCC1 [Example A-192, 6-fluoro-2-methyl-7-(6-(3-(piperidin-1-yl)propoxy)pyridin-3-yl)-8,9-dihydrospiro[2,4,8,10a-tetraazanaphtho[2,1,8-cde]azulene-10,1′-cyclobutan]-1(2H)-one]
- D 17 TGI [3, 6]: 79.6%
- D 17 TV (MEAN ± SD) [3, 6]: 323 ± 114***^# mm^3

- IC50 [2]: 0.23 nM
SMILES: Cn1c(=O)n2c3c4c(c(-c5ccc(OCCCN6CCCCC6)nc5)ccc4ncc31)NCC21CCC1 [Example A-202, 2-methyl-7-(6-(3-(piperidin-1-yl)propoxy)pyridin-3-yl)-8,9-dihydrospiro[2,4,8,10a-tetraazanaphtho[2,1,8-cde]azulene-10,1′-cyclobutan]-1(2H)-one]

- IC50 [2]: 0.29 nM
SMILES: CC1CCN(CCCOc2ccc(-c3ccc4ncc5c6c4c3OC[C@H](C)n6c(=O)n5C)cn2)CC1 [Example A-208, (S)-2,10-dimethyl-7-(6-(3-(4-methylpiperidin-1-yl)propoxy)pyridin-3-yl)-9,10-dihydro-8-oxa-2,4,10a-triazanaphtho[2,1,8-cde]azulen-1(2H)-one]

Second part, the compound before the results:

SMILES: Cn1c(=O)n2c3c4c(c(-c5ccc(OCCCN6CCCCC6)nc5)c(F)cc4ncc31)OCC2(C)C [Example A-6, 6-fluoro-2,10,10-trimethyl-7-(6-(3-(piperidin-1-yl)propoxy)pyridin-3-yl)-9,10-dihydro-8-oxa-2,4,10a-triazanaphtho[2,1,8-cde]azulen-1(2H)-one]
- inhibitory effect on tumor volume and tumor weight, in words [1]: higher than those of AZD1390
- D 16 TGI [1]: 100.4%
- D 16 TV (MEAN ± SD) [1]: 163.8 ± 62.8***^### mm^3
- Tumor weight [1]: 0.12 ± 0.03 g
- Tumor weight inhibitory rate [1]: 82.4%
- IC50 [2]: 0.37 nM

SMILES: CN(C)CCCOc1ccc(-c2c(F)cc3ncc4c5c3c2OCC(C)(C)n5c(=O)n4C)cn1 [Example A-46, 7-(6-(3-(dimethylamino)propoxy)pyridin-3-yl)-6-fluoro-2,10,10-trimethyl-9,10-dihydro-8-oxa-2,4,10a-triazanaphtho[2,1,8-cde]azulen-1(2H)-one]
- inhibitory effect on tumor volume and tumor weight, in words [1]: higher than those of AZD1390
- D 16 TGI [1]: 102.2%
- D 16 TV (MEAN ± SD) [1]: 149.5 ± 67.4***^### mm^3
- Tumor weight [1]: 0.12 ± 0.06 g
- Tumor weight inhibitory rate [1]: 82.0%
- IC50 [2]: 0.52 nM

SMILES: C[C@@H]1CNc2c(-c3ccc(OCCCN4CCCCC4)nc3)c(F)cc3ncc4c(c23)n1c(=O)n4C [Example A-195, (R)-6-fluoro-2,10-dimethyl-7-(6-(3-(piperidin-1-yl)propoxy)pyridin-3-yl)-2,8,9,10-tetrahydro-1H-2,4,8,10a-tetraazanaphtho[2,1,8-cde]azulen-1(2H)-one]
- IC50 [2]: 0.41 nM

SMILES: CC[C@H]1CNc2c(-c3ccc(OCCCN4CCCCC4)nc3)c(F)cc3ncc4c(c23)n1c(=O)n4C [Example A-196, (S)-10-ethyl-6-fluoro-2-methyl-7-(6-(3-(piperidin-1-yl)propoxy)pyridin-3-yl)-2,8,9,10-tetrahydro-1H-2,4,8,10a-tetraazanaphtho[2,1,8-cde]azulen-1(2H)-one]
- IC50 [2]: 0.51 nM

SMILES: C[C@@H]1CNc2c(-c3ccc(OCCCN4CCCCC4)nc3)ccc3ncc4c(c23)n1c(=O)n4C [Example A-199, (R)-2,10-dimethyl-7-(6-(3-(piperidin-1-yl)propoxy)pyridin-3-yl)-2,8,9,10-tetrahydro-1H-2,4,8,10a-tetraazanaphtho[2,1,8-cde]azulen-1(2H)-one]
- IC50 [4]: 0.78 nM
- IC50 [2]: 0.92 nM

SMILES: C[C@H]1COc2c(-c3ccc(OCCCN4CCC(C)(C)CC4)nc3)ccc3ncc4c(c23)n1c(=O)n4C [Example A-207, (S)-7-(6-(3-(4,4-dimethylpiperidin-1-yl)propoxy)pyridin-3-yl)-2,10-dimethyl-9,10-dihydro-8-oxa-2,4,10a-triazanaphtho[2,1,8-cde]azulen-1(2H)-one]
- IC50 [2]: 0.44 nM
